Experimental data taken from patent publication US7317033B2, “Substituted thiophenes: compositions, processes of making, and uses in disease treatment and diagnosis” (Sanofi-Aventis Deutschland GmbH, priority 2002, dated 2008).
Counter-ions that a name gives are not always drawn.

Target: T1, rNHE3 (Rattus norvegicus, UniProt P26433)
T1 construct: host or cells: cells, not specified
Assay: recovery of intracellular pH (pHi) after acidification, BCECF fluorescence, rNHE3
Assay type: cell-based
Conditions: pH recovery recorded for three minutes
Experimental: In this test, the recovery of the intracellular pH (pHi) after an acidification, which starts when the NHE is capable of functioning, even under bicarbonate-free conditions, was determined. For this purpose, the pHi was determined using the pH-sensitive fluorescent dye BCECF (Calbiochem, the precursor BCECF-AM is employed). The cells were initially loaded with BCECF. The BCECF fluorescence was determined in a “ratio fluorescence spectrometer” (Photon Technology International, South Brunswick, N.J., USA) with excitation wavelengths of 505 and 440 nm and an emission wavelength of 535 nm, and was converted into the pHi using calibration plots. The cells were incubated in NH4Cl buffer (pH 7.4) (NH4Cl buffer: 115 mM NaCl, 20 mM NH4Cl, 5 mM KCl, 1 mM CaCl2, 1 mM MgSO4, 20 mM Hepes, 5 mM glucose, 1 mg/ml BSA; a pH of 7.4 is established with 1 M NaOH) even during the BCECF loading. […] The subsequent rate of pH recovery was recorded in the case of NHE1 for two minutes, in the case of NHE2 for five minutes and in the case of NHE3 for three minutes. […] Recovery of the intracellular pH at each tested concentration of a substance was expressed as a percentage of the maximum recovery. Using the Sigma-Plot program, the IC50 value of the substance in question was calculated for the individual NHE subtypes using the percentages for pH recovery.

T1 sequence (P26433 29-831): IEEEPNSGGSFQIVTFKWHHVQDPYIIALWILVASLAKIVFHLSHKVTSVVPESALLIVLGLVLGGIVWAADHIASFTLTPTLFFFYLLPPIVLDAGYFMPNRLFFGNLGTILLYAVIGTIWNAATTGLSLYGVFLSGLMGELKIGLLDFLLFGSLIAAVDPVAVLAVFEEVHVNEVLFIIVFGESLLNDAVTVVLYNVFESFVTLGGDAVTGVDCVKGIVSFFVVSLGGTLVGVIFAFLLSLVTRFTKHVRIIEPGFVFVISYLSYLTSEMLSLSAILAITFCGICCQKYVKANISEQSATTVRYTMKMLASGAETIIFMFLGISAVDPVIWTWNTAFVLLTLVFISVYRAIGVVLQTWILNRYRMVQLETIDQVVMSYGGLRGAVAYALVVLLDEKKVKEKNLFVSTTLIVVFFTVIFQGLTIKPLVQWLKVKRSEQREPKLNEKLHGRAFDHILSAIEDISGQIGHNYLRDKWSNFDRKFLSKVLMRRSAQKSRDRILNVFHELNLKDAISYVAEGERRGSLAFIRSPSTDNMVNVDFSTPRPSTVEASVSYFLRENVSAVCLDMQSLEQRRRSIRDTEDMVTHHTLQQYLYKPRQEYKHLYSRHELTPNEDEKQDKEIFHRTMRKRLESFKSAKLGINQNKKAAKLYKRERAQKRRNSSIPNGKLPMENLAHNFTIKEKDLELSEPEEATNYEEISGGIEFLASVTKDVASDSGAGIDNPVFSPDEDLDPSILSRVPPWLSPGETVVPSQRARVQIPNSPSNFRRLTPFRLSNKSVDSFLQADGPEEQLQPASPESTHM

| IC50 [nM] | Structure (SMILES) |
| --- | --- |
| 120 | Cc1csc(Cl)c1Nc1nc2ccccc2[nH]1 [Example 12, 2-Chloro-3N-(2-benzimidazolyl)-4-methyl-3-thienylamine hydrochloride] |
| 270 | Cc1csc(Cl)c1NC1=N[C@@H]2CCCC[C@H]2N1 [Example 16, trans-R,R-2-chloro-3N-(3a,4,5,6,7,7a-hexahydro-1H-2-benzimidazolyl)-4-methyl-3-thienylamine hydrochloride] |

Target: T2, hNHE3 (Homo sapiens, UniProt P48764)
T2 construct: host or cells: cells, not specified
T2 sequence (P48764 26-834): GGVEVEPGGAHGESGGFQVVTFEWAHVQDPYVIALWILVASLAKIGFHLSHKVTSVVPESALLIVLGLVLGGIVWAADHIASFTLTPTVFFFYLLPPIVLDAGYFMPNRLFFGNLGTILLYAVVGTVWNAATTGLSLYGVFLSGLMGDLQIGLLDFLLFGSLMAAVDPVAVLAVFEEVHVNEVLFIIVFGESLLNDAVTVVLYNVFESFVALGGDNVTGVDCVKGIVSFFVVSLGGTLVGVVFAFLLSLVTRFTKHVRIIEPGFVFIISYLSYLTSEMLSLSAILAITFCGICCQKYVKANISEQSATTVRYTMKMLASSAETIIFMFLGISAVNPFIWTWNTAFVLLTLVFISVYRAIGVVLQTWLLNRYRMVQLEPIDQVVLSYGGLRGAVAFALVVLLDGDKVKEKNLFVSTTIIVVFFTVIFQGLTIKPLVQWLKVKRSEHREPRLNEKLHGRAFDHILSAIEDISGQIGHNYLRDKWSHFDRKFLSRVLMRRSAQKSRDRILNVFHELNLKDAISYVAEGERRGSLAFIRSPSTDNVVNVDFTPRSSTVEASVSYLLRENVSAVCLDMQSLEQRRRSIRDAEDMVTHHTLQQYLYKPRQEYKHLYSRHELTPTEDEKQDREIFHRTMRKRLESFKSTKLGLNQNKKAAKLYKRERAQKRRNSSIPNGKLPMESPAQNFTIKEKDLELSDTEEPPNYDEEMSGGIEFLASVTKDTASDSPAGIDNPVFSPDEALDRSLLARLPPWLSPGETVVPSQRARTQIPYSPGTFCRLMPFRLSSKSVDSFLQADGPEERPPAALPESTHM
Assay: recovery of intracellular pH (pHi) after acidification, BCECF fluorescence, hNHE3
Assay type: cell-based
Conditions: pH recovery recorded for three minutes
Experimental: In this test, the recovery of the intracellular pH (pHi) after an acidification, which starts when the NHE is capable of functioning, even under bicarbonate-free conditions, was determined. For this purpose, the pHi was determined using the pH-sensitive fluorescent dye BCECF (Calbiochem, the precursor BCECF-AM is employed). The cells were initially loaded with BCECF. The BCECF fluorescence was determined in a “ratio fluorescence spectrometer” (Photon Technology International, South Brunswick, N.J., USA) with excitation wavelengths of 505 and 440 nm and an emission wavelength of 535 nm, and was converted into the pHi using calibration plots. The cells were incubated in NH4Cl buffer (pH 7.4) (NH4Cl buffer: 115 mM NaCl, 20 mM NH4Cl, 5 mM KCl, 1 mM CaCl2, 1 mM MgSO4, 20 mM Hepes, 5 mM glucose, 1 mg/ml BSA; a pH of 7.4 is established with 1 M NaOH) even during the BCECF loading. The intracellular acidification was induced by addition of 975 μl of an NH4Cl-free buffer (see below) to 25 μl aliquots of the cells incubated in NH4Cl buffer. The subsequent rate of pH recovery was recorded in the case of NHE1 for two minutes, in the case of NHE2 for five minutes and in the case of NHE3 for three minutes. To calculate the inhibitory power of the tested substances, the cells were initially investigated in buffers in which complete or absolutely no pH recovery took place. For complete pH recovery (100%), the cells were incubated in Na^+-containing buffer (133.8 mM NaCl, 4.7 mM KCl, 1.25 mM CaCl2, 1.25 mM MgCl2, 0.97 mM Na2HPO4, 0.23 mM NaH2PO4, 5 mM Hepes, 5 mM glucose, a pH of 7.0 is established with 1 M NaOH). To determine the 0% value, the cells were incubated in an Na^+-free buffer (133.8 mM choline chloride, 4.7 mM KCl, 1.25 mM CaCl2, 1.25 mM MgCl2, 0.97 mM K2HPO4, 0.23 mM KH2PO4, 5 mM Hepes, 5 mM glucose, a pH of 7.0 is established with 1 M KOH). The substances to be tested were made up in the Na^+-containing buffer. Recovery of the intracellular pH at each tested concentration of a substance was expressed as a percentage of the maximum recovery. Using the Sigma-Plot program, the IC50 value of the substance in question was calculated for the individual NHE subtypes using the percentages for pH recovery.

| IC50 [nM] | Structure (SMILES) |
| --- | --- |
| 620 | Cc1csc(Cl)c1Nc1nc2cc(F)ccc2[nH]1 [Example 2, 2-Chloro-3N-(5-fluoro-2-benzimidazolyl)-4-methyl-3-thienylamine hydrochloride] |
| 120 | Cc1csc(Br)c1Nc1nc2ccccc2[nH]1 [Example 18, 2-Bromo-3N-(2-benzimidazolyl)-4-methyl-3-thienylamine hydrochloride] |
| 560 | Cc1csc(Br)c1NC1=N[C@@H]2CCCC[C@H]2N1 [Example 19, trans-R,R-2-Bromo-3N-(3a,4,5,6,7,7a-hexahydro-1H-2-benz-imidazolyl)-4-methyl-3-thienylamine hydrochloride] |
| 840 | Cc1csc(Cl)c1Nc1nc2c(O)cccc2[nH]1 [Example 38, 2-Chloro-3N-(4-hydroxy-2-benzimidazolylamino)-4-methylthiophene hydrochloride] |
| 1590 | Cc1csc(Cl)c1N(C)c1nc2ccccc2[nH]1 [Example 44, (1H-Benzimidazol-2-yl)-(2-chloro-4-methylthiophen-3-yl)methylamine] |
| 140 | Clc1csc(Br)c1Nc1nc2ccccc2[nH]1 [Example 53, 2-Bromo-4-chloro-3N-(2-benzimidazolylamino)thiophene hydrochloride] |
| 220 | Fc1ccc2[nH]c(Nc3c(Cl)csc3Cl)nc2c1 [Example 54, (2,4-Dichloro-thiophen-3-yl)-(5-fluoro-1H-benzoimidazol-2-yl)-amine-hydrochloride] |
| 220 | Fc1cc2nc(Nc3c(Cl)csc3Cl)[nH]c2cc1F [Example 56, (2,4-Dichloro-thiophen-3-yl)-(5,6-difluoro-1H-benzoimidazol-2-yl)-amine-hydrochloride] |
| 190 | Clc1cscc1NC1=N[C@H]2CCCC[C@@H]2N1 [Example 60, trans-(3aS,7aS)-4-Chloro-3N-(3a,4,5,6,7,7a-hexahydro-1H-2-benzimidazolyl)-3-thienylamine Hydrochloride] |
| 540 | Clc1csc(Cl)c1NC1=N[C@@H]2CCCC[C@H]2N1 [Example 63, trans-R,R-2,4-Dichloro-3N-(3a,4,5,6,7,7a-hexahydro-1H-2-benzimidazolyl)-3-thienylamine Hydrochloride] |

System: not given
Assay: not given
Conditions: not given

| melting point [°C] | Structure (SMILES) |
| --- | --- |
| 200 to 202 | Cc1csc(Cl)c1Nc1nc2cc(F)ccc2[nH]1 (as salt: hydrochloride) [Example 2, 2-Chloro-3N-(5-fluoro-2-benzimidazolyl)-4-methyl-3-thienylamine hydrochloride] |
| 260 to 262 | Cc1csc(Cl)c1NC1=N[C@@H]2CCCC[C@H]2N1 (as salt: hydrochloride) [Example 16, trans-R,R-2-chloro-3N-(3a,4,5,6,7,7a-hexahydro-1H-2-benzimidazolyl)-4-methyl-3-thienylamine hydrochloride] |
